Holding throughout (assay type): biochemical
The target in one assay is T1, recombinant PRL-1 (Homo sapiens, UniProt Q93096).
T1 construct: 6xHis (N, cleaved yes); made in house; host or cells: E. coli One Shot BL21 Star
T1 sequence (Q93096 1-173): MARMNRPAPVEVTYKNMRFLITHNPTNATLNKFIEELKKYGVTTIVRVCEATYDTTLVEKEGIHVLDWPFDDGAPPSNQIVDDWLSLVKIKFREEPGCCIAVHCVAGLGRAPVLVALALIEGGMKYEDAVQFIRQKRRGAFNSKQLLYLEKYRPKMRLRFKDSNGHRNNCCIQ
Description: In vitro phosphatase assay (DiFMUP hydrolysis), PRL-1. Also: test concentration or dose not given here.

The target of another assay is T2, recombinant PRL-3 (Homo sapiens, UniProt O75365).
T2 construct: 6xHis (N, cleaved yes); made in house; host or cells: E. coli One Shot BL21 Star
T2 sequence (O75365 whole entry): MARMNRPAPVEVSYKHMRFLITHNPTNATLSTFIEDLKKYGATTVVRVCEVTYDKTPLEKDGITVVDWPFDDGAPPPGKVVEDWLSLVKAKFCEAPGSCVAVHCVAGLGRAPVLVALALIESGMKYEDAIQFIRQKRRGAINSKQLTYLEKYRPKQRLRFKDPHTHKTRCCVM
The assay can be described thus: In vitro phosphatase assay (DiFMUP hydrolysis), PRL-3. Also: test concentration or dose not given here.

Another assay has as its target T3, recombinant PRL-2 (Homo sapiens, UniProt Q12974).
T3 construct: 6xHis (N, cleaved yes); made in house; host or cells: E. coli One Shot BL21 Star
T3 sequence (Q12974 1-167): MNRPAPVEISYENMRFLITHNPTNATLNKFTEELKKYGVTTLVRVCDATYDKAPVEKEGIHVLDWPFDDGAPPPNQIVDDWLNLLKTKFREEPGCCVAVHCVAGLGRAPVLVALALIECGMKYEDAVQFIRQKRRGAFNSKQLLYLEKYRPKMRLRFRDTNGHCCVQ
Description: In vitro phosphatase assay (DiFMUP hydrolysis), PRL-2.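 Also: PRL-2 activity read as DiFMUP hydrolysis after 20 min at room temperature with drug, enzyme first pre-reduced at 4 °C for 20 min.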

Where [1] appears, read: FDA-approved drug screen, compared to DMSO.

The text below walks through data of article PMC8119466, “A screen of FDA-approved drugs identifies inhibitors of protein tyrosine phosphatase 4A3 (PTP4A3 or PRL-3)” (Scientific Reports, 2021).

Counter-ions that a name gives are not always drawn. Like-named read-outs stand apart in the source and are kept apart here.

Regarding `CCCN(CCC)S(=O)(=O)c1ccc(C(=O)O)cc1` [Probenecid], at recombinant PRL-1 (setting [1]), the “% Phosphatase Activity (compared to DMSO) PRL-1” value was 110%. Further, the “% Phosphatase Activity (compared to DMSO) PRL-3” value at recombinant PRL-3 (setting [1]) amounted to 84%. Further, the “% Phosphatase Activity (compared to DMSO) PRL-2” value at recombinant PRL-2 (setting [1]) is reported as 114%.
Taken in the same sequence, the figures for `CC(C)(Sc1cc(C(C)(C)C)c(O)c(C(C)(C)C)c1)Sc1cc(C(C)(C)C)c(O)c(C(C)(C)C)c1` [Probucol] were 100%, 78% and 122%.
For `CCN(CC)CCNC(=O)c1ccc(N)cc1` [Procainamide HCl], in that order: 94%, 75% and 127%.
Taken in the same sequence, the figures for `CCN(CC)CCOC(=O)c1ccc(N)cc1` [Procaine HCl] were 108%, 92% and 112%.
As for `CCN(CC)CCOC(=O)c1ccc(N)cc1` [Procaine], the “% Phosphatase Activity (compared to DMSO) PRL-1” value at recombinant PRL-1 (setting [1]) was 102%. On recombinant PRL-3 (setting [1]), the “% Phosphatase Activity (compared to DMSO) PRL-3” value stood at 80%. Besides, the “% Phosphatase Activity (compared to DMSO) PRL-2” value on recombinant PRL-2 (setting [1]) was found to be 94%.
Taken in the same sequence, the figures for `CNNCc1ccc(C(=O)NC(C)C)cc1` [Procarbazine HCl] were 103%, 87% and 90%.
For `CN1CCN(CCCN2c3ccccc3Sc3ccc(Cl)cc32)CC1.O=C(O)/C=C\C(=O)O.O=C(O)/C=C\C(=O)O` [Prochlorperazine dimaleate salt], in that order: 93%, 91% and 108%.
Regarding `O=C(O)CCc1nc2ccccc2[nH]1` [Procodazole], the “% Phosphatase Activity (compared to DMSO) PRL-1” value on recombinant PRL-1 (setting [1]) came out at 98%. Also, at recombinant PRL-3 (setting [1]), the “% Phosphatase Activity (compared to DMSO) PRL-3” value was 86%. In addition, the “% Phosphatase Activity (compared to DMSO) PRL-2” value on recombinant PRL-2 (setting [1]) worked out at 85%.
For `OC(CCN1CCCC1)(c1ccccc1)C1CCCCC1` (stereo not drawn) [Procyclidine HCl], in that order: 112%, 95% and 118%.
For `Nc1ccc2cc3ccc(N)cc3nc2c1` [Proflavine Hemisulfate], in that order: 81%, 100% and 61%.
For `CC(=O)[C@H]1CC[C@H]2[C@@H]3CCC4=CC(=O)CC[C@]4(C)[C@H]3CC[C@]12C` [Progesterone], in that order: 90%, 76% and 96%.
On to `CC(CN1c2ccccc2Sc2ccccc21)N(C)C.Cl` (stereo not drawn) [Promethazine HCl], for which the “% Phosphatase Activity (compared to DMSO) PRL-1” value at recombinant PRL-1 (setting [1]) came to 99%. For the same molecule, on recombinant PRL-3 (setting [1]), the “% Phosphatase Activity (compared to DMSO) PRL-3” value is 77%. In addition, the “% Phosphatase Activity (compared to DMSO) PRL-2” value at recombinant PRL-2 (setting [1]) was found to be 106%.
Turning to `CCCNCC(O)COc1ccccc1C(=O)CCc1ccccc1` (stereo not drawn) [Propafenone HCl], on recombinant PRL-1 (setting [1]), the “% Phosphatase Activity (compared to DMSO) PRL-1” value is 98%. The “% Phosphatase Activity (compared to DMSO) PRL-3” value at recombinant PRL-3 (setting [1]) was 79%. At recombinant PRL-2 (setting [1]), the “% Phosphatase Activity (compared to DMSO) PRL-2” value turned out to be 114%.
With `CCCOc1ccc(C(=O)OCCN(CC)CC)cc1N` [Proparacaine HCl], the “% Phosphatase Activity (compared to DMSO) PRL-1” value at recombinant PRL-1 (setting [1]) was determined as 78%. The “% Phosphatase Activity (compared to DMSO) PRL-3” value on recombinant PRL-3 (setting [1]) is reported as 96%. For the same molecule, at recombinant PRL-2 (setting [1]), the “% Phosphatase Activity (compared to DMSO) PRL-2” value stood at 108%.
Taken in the same sequence, the figures for `CC(C)NCC(O)COc1cccc2ccccc12.Cl` (stereo not drawn) [Propranolol HCl] were 95%, 70% and 128%.
For `CCCc1cc(=O)[nH]c(=S)[nH]1` [Propylthiouracil], the “% Phosphatase Activity (compared to DMSO) PRL-1” value on recombinant PRL-1 came to 94%. Moreover, at recombinant PRL-3, the “% Phosphatase Activity (compared to DMSO) PRL-3” value amounted to 91%. Moreover, the “% Phosphatase Activity (compared to DMSO) PRL-2” value on recombinant PRL-2 is recorded as 93%.
In the case of `CCCc1cc(C(N)=S)ccn1` [Protionamide], the “% Phosphatase Activity (compared to DMSO) PRL-1” value at recombinant PRL-1 (setting [1]) is recorded as 100%. Moreover, the “% Phosphatase Activity (compared to DMSO) PRL-3” value at recombinant PRL-3 (setting [1]) was 97%. Besides, on recombinant PRL-2 (setting [1]), the “% Phosphatase Activity (compared to DMSO) PRL-2” value stood at 101%.
Consider `NC(=O)[C@@H]1CCCN1C(=O)[C@H](Cc1cnc[nH]1)NC(=O)[C@@H]1CCC(=O)N1` [Protirelin], for which the “% Phosphatase Activity (compared to DMSO) PRL-1” value on recombinant PRL-1 (setting [1]) is given as 97%. Moreover, the “% Phosphatase Activity (compared to DMSO) PRL-3” value at recombinant PRL-3 (setting [1]) was 106%. Further, the “% Phosphatase Activity (compared to DMSO) PRL-2” value at recombinant PRL-2 (setting [1]) stood at 91%.
